Calls of active or inactive are those of the source. The calls are words filed in the database; no cut-off is given here.
Columns and labels:
[1] = target: Sodium-dependent noradrenaline transporter (Homo sapiens) (UniProt P23975); test: Inhibition of NET (unknown origin) at 10 uM
[2] = target: T1, N-acylethanolamine-hydrolyzing acid amidase (Homo sapiens, UniProt Q02083); test: Inhibition of human NAAA using N-(4-methyl coumarin)-palmitamide as fluorogenic substrate preincubated for 90 mins followed by substrate addition by fluorescence assay
T1 sequence (Q02083 whole entry): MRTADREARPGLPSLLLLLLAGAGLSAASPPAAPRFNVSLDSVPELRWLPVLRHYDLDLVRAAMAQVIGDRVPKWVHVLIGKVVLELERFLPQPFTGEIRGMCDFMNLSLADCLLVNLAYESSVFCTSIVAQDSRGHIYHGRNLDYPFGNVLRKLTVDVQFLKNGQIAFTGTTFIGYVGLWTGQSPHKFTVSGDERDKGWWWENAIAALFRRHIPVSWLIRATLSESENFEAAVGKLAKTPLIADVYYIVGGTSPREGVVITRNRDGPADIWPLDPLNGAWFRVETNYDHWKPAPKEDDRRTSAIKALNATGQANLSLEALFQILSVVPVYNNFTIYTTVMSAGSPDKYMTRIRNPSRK

Cytochrome P450 1A2 = target: T2, Cytochrome P450 1A2 (Homo sapiens, UniProt P05177); test: Inhibition of CYP1A2 (unknown origin); type: ADME
T2 sequence (P05177 whole entry): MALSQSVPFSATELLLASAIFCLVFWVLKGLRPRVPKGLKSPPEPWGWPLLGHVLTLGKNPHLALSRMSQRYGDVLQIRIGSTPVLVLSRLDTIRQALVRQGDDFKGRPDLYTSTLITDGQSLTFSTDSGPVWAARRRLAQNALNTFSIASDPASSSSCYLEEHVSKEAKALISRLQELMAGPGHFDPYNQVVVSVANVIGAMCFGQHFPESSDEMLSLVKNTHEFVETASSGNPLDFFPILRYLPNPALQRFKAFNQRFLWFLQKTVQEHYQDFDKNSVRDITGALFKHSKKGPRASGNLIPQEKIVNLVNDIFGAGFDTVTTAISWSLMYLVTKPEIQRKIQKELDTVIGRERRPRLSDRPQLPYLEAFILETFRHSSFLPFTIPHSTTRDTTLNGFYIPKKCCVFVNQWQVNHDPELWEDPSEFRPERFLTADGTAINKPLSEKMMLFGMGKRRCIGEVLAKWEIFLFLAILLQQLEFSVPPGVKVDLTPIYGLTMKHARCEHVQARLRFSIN

[3] = target: Cannabinoid receptor 2 (Homo sapiens) (UniProt P34972); test: Displacement of [3H]-CP55940 from human CB2 receptor expressed in HEK293 cell membrane at 10 uM; type: cell membranes
[4] = Drug concentration in plasma of CD-1 mouse at 8 mg/kg, po administered as single cassette dose measured after 30 mins; type: ADME, organism-based
[5] = Half life in human liver microsomes at 1 uM in presence of NADPH by LC-MS/MS analysis; type: ADME, Microsome
Cytochrome P450 2D6 = Cytochrome P450 2D6 (Homo sapiens, UniProt P10635); test: Inhibition of CYP2D6 (unknown origin) at 10 uM; type: ADME
[6] = Half life in rat liver microsomes at 1 uM in presence of NADPH by LC-MS/MS analysis; type: ADME, Microsome
[7] = Volume of distribution in CD-1 mouse plasma at 2 mg/kg, iv measured up to 8 hrs; type: ADME, organism-based
[8] = Mutagenecity in Salmonella typhimurium TA100 in absence of S9 fraction at 5 to 100 uM by Ames test; type: toxicity; details: salmonella enterica subsp. enterica serovar typhimurium, s9, 100 µM; dose 5-100 µM
[9] = Mutagenecity in Salmonella typhimurium TA1537 in absence of S9 fraction at 5 to 100 uM by Ames test; type: toxicity; details: salmonella enterica subsp. enterica serovar typhimurium, s9, 100 µM; dose 5-100 µM
[10] = Half life in CD-1 mouse plasma at 8 mg/kg, po measured up to 8 hrs; type: ADME, organism-based
[11] = target: Voltage-gated inwardly rectifying potassium channel KCNH2 (Homo sapiens, UniProt Q12809); test: Inhibition of human ERG
[12] = target: Sodium-dependent dopamine transporter (Homo sapiens) (UniProt Q01959); test: Inhibition of DAT (unknown origin) at 10 uM
[13] = AUC in CD-1 mouse brain at 2 mg/kg, iv measured up to 6 hrs; type: ADME, organism-based; set-up: route intravenous, dose 2 mg/kg, time <=6
[14] = AUC in CD-1 mouse plasma at 8 mg/kg, po measured up to 8 hrs; type: ADME, organism-based; set-up: route oral, dose 8 mg/kg, time <=8

Chain of Voltage-gated inwardly rectifying potassium channel KCNH2 (Q12809 whole entry): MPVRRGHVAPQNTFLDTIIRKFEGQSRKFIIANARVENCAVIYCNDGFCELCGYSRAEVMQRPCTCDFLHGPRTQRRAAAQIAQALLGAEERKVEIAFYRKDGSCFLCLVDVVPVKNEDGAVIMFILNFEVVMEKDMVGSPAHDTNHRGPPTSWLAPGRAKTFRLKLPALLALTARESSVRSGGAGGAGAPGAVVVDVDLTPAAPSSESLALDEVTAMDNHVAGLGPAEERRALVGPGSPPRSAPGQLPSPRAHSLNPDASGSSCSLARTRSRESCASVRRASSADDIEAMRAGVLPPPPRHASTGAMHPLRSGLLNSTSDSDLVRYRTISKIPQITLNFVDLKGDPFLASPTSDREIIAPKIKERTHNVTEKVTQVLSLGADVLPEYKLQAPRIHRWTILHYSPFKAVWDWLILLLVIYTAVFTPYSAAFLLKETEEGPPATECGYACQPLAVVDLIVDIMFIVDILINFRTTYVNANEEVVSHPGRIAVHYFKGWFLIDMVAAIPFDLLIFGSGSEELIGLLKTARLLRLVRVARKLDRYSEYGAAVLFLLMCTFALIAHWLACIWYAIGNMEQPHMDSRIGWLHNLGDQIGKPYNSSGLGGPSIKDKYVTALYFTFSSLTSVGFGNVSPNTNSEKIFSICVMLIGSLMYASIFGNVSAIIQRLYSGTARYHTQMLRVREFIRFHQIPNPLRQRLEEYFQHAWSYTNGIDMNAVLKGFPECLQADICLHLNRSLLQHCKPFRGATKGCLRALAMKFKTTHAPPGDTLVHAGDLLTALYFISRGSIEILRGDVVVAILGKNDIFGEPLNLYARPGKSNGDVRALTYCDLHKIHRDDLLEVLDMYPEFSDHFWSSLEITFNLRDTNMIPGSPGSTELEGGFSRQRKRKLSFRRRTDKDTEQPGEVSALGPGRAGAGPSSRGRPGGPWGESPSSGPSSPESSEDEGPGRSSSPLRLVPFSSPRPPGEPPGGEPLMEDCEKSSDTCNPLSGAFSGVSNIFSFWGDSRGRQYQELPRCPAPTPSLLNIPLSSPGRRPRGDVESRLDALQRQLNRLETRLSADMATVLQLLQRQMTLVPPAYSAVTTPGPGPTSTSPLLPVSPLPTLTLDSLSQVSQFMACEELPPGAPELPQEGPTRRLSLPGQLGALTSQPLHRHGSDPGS
Chain of Cytochrome P450 2D6 (P10635 whole entry): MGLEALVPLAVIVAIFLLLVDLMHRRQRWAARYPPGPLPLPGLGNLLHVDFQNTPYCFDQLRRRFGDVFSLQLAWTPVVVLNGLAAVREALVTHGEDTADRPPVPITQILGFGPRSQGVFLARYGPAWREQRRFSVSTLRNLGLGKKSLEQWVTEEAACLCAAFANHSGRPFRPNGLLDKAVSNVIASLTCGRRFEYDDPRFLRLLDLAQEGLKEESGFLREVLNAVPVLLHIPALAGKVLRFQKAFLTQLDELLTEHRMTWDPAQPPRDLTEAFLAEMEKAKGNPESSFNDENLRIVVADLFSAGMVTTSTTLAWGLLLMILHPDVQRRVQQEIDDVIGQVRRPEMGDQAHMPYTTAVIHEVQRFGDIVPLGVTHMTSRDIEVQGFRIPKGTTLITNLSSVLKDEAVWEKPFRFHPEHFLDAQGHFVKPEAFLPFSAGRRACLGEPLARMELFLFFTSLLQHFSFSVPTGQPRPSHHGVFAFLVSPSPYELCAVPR
Chain of Cannabinoid receptor 2 (Homo sapiens) (P34972 whole entry): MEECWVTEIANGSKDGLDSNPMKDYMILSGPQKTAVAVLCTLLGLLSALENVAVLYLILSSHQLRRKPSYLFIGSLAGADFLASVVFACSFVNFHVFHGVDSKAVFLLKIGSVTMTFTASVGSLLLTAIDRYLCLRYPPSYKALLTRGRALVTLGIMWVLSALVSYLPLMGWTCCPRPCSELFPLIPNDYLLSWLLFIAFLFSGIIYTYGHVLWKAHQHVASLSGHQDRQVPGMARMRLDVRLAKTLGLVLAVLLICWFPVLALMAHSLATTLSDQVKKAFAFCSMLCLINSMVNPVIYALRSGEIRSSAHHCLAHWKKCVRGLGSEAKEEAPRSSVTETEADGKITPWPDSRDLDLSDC
Chain of Sodium-dependent noradrenaline transporter (Homo sapiens) (P23975 whole entry): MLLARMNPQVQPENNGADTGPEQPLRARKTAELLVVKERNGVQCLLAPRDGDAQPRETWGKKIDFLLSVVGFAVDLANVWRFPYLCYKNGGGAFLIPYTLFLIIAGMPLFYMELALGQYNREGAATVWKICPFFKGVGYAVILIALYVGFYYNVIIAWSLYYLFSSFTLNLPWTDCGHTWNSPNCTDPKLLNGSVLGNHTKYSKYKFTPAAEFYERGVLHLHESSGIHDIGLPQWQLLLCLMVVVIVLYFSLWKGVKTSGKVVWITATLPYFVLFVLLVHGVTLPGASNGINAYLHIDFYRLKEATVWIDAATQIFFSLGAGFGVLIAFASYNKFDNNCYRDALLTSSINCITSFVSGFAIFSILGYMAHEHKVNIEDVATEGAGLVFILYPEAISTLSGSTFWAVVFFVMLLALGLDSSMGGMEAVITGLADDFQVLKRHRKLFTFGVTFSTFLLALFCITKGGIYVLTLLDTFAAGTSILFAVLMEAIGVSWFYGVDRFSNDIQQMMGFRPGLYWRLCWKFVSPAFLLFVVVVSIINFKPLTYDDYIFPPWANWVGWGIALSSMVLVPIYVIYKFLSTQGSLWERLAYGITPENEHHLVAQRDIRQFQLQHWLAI
Chain of Sodium-dependent dopamine transporter (Homo sapiens) (Q01959 whole entry): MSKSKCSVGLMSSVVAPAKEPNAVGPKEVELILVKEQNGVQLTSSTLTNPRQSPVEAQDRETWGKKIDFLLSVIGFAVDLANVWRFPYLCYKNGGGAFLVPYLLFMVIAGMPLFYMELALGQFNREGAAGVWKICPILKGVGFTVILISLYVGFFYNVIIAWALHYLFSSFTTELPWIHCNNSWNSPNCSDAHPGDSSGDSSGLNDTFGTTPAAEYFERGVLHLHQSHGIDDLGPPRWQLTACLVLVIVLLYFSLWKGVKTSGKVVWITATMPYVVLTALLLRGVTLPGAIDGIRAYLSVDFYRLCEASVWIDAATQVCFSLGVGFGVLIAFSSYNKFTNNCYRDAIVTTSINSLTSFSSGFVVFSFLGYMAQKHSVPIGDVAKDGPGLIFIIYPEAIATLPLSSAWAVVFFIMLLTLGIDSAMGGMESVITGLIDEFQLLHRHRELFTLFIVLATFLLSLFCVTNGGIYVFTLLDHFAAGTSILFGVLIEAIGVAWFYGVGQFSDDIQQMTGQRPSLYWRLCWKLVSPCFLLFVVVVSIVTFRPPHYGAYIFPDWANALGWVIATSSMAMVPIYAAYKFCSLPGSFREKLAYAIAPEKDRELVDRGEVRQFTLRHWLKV

In the case of `COc1ccc(-c2ccc(CO[C@H]3C[C@@H](N=C=S)C3)nc2)cc1F`, the inhibition [1] is reported as “inactive”, the IC50 [2] is reported as 20 nM and the IC50 (Cytochrome P450 1A2) is reported as 1800 nM. The inhibition [3] was “inactive”, the concentration at 0.5 h [4] was 16 ng/mL and the half-life at 1 µM [5] was 16.7 min. The “inhibition (INH)” value (Cytochrome P450 2D6) was “Not Active”, the half-life at 1 µM [6] was 19.2 min and the Vd [7] was 27 L/kg. The Activity [8] was “Non-Toxic”, the Activity [9] was “Non-Toxic” and the half-life [10] was 31.5 min. For the same molecule, the IC50 [11] was 19000 nM, the inhibition [12] was “inactive” and the AUC at 6 h [13] was 298 ng·h/mL. For the same molecule, the AUC at 8 h [14] was 41.3 ng·h/mL.
